Assay results from US20220204497A1, “NOVEL COMPOUND HAVING ANTICANCER ACTIVITY, AND METHOD FOR PRODUCING SAME” (MEDICINAL BIOCONVERGENCE RESEARCH CENTER, priority 2019, published 2022).

Assays:
[1] = tested on: A549 cells; test: Cell viability by MTT method in A549 cells; assay type: cell-based; parameters: concentration or dose not given beside the values; settings: 72 hours treatment
[2] = biological target: T1, AIMP2-DX2 (Homo sapiens, UniProt Q13155); test: DX2-nanoluciferase assay (DX2 expression change) in transfected A549 cells; settings: for inhibition at 40 µM / inhibition at 10 µM: A549, 4 h; for inhibition at 40 µM: read-out: DX-Nanoluciferase activity (40 μM), 40 μM, 4 hours treatment, A549 cells transfected with nanoluciferase-DX2; for inhibition at 10 µM: read-out: DX-Nanoluciferase activity (10 μM), 10 μM, 4 hours treatment, A549 cells transfected with nanoluciferase-DX2
T1 sequence (Q13155 1-251 isoform Q13155-2): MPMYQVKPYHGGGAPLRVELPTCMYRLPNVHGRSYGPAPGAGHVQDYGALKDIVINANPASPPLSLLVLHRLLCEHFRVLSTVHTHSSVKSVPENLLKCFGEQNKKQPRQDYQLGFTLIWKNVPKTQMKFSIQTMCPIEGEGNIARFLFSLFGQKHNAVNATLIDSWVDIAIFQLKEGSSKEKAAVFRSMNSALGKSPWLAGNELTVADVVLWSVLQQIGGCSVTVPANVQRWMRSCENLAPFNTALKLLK
Experimental: After cloning DX2 into a plasmid expressing nanoluciferase, the plasmid was transfected into A549 cells. Transfected cells were seeded 1×10^4 per well in a 96-well plate and stabilized for 12 hours. […] Cell viability was measured by the MTT method after 72 hours of treatment with each concentration of the compound in A549 cells.

[3] = inhibitory effect on AIMP2-DX2 expression

Structure (SMILES)	inhibition at 40 µM [2, 3] [%]	DX-Nanoluciferase activity (40 μM) ([2]; 40 μM, 4 hours treatment, A549 cells transfected with nanoluciferase-DX2, inhibitory effect on AIMP2-DX2 expression)	inhibition at 10 µM [2] [%]	Cell Viability (% inhibition) (A549) [1] [%]	DX-Nanoluciferase activity (10 μM) ([2]; 10 μM, 4 hours treatment, A549 cells transfected with nanoluciferase-DX2)
COc1ccc(-c2nnc(NC(=O)[C@H](CC(C)C)NS(=O)(=O)c3ccc(C)cc3)s2)cc1 [Compound 87, (S)—N-(5-(4-methoxyphenyl)-1,3,4-thiadiazol-2-yl)-4-methyl-2-(4-methylphenylsulfonamido)pentanamide]	50.2 ± 7.05			36.61 ± 3.85	
COc1ccc(-c2cc(NC(=O)[C@H](CC(C)C)NS(=O)(=O)c3ccc(C)cc3)no2)cc1 [Compound 88, (S)—N-(5-(4-methoxyphenyl)isoxazol-3-yl)-4-methyl-2-(4-methylphenylsulfonamido)pentanamide]	57 ± 8.83			46.96 ± 4.60	
COc1ccc(-c2cc(NC(=O)[C@H](CC(C)C)NS(=O)(=O)c3ccc(C)cc3)on2)cc1 [Compound 89, (S)—N-(3-(4-methoxyphenyl)isoxazol-5-yl)-4-methyl-2-(4-methylphenylsulfonamido)pentanamide]	47.5 ± 13.3			98.73 ± 0.92	
Cc1ccc(S(=O)(=O)N[C@@H](CC(C)C)C(=O)Nc2nc(-c3ccc(C(F)(F)F)cc3)cs2)cc1 [Compound 90, (S)-4-Methyl-2-(4-methylphenylsulfonamido)-N-(4-(4-(trifluoromethyl)phenyl)thiazol-2-yl)pentanamide]	65.4 ± 4.13			86.36 ± 0.64	
COc1ccc(-c2csc(NC(=O)[C@H](CC(C)C)NS(=O)(=O)c3ccc(C)cc3)n2)cc1OC [Compound 91, (S)—N-(4-(3,4-dimethoxyphenyl)thiazol-2-yl)-4-methyl-2-(4-methylphenylsulfonamido)pentanamide]	16.4 ± 8.65			87.36 ± 2.13	
Cc1ccc(S(=O)(=O)N[C@@H](CC(C)C)C(=O)Nc2nc(-c3ccc(F)cc3Br)cs2)cc1 [Compound 92, (S)—N-(4-(2-bromo-4-fluorophenyl)thiazol-2-yl)-4-methyl-2-(4-methylphenylsulfonamido)pentanamide]	31.5 ± 6.84			100.05 ± 1.22	
Cc1ccc(S(=O)(=O)N[C@@H](CC(C)C)C(=O)Oc2ccc(-c3csc(N)n3)cc2)cc1 [Compound 93, (S)-4-(2-Aminothiazol-4-yl)phenyl 4-methyl-2-(4-methylphenylsulfonamido)pentanoate]	22.5 ± 3.96			48.85 ± 9.03	
Cc1ccc(S(=O)(=O)N[C@@H](CC(C)C)C(=O)Nc2nc(-c3ccc(F)cc3)cs2)cc1 [Compound 94, (S)—N-(4-(4-fluorophenyl)thiazol-2-yl)-4-methyl-2-(4-methylphenylsulfonamido)pentanamide]	11.5 ± 7.25			101.42 ± 0.79	
Cc1ccc(S(=O)(=O)N[C@@H](CC(C)C)C(=O)Nc2nc(-c3ccc(OC(F)(F)F)cc3)cs2)cc1 [Compound 95, (S)-4-Methyl-2-(4-methylphenylsulfonamido)-N-(4-(4-(trifluoromethoxy)phenyl)thiazol-2-yl)pentanamide]	22.6 ± 5.29			92.97 ± 0.09	
Cc1ccc(S(=O)(=O)N[C@@H](CC(C)C)C(=O)Nc2nc(-c3ccc(O)cc3)cs2)cc1 [Compound 96, (S)—N-(4-(4-hydroxyphenyl)thiazol-2-yl)-4-methyl-2-(4-methylphenylsulfonamido)pentanamide]	36.8 ± 9.16			93.07 ± 5.89	
Cc1ccc(-c2csc(NC(=O)[C@H](CC(C)C)N(C)S(=O)(=O)c3ccccc3)n2)cc1 [Compound 97, (S)-4-Methyl-2-(methylphenylsulfonamido)-N-(4p-tolylthiazol-2-yl)pentanamide]	15.1 ± 2.59			67.10 ± 7.93	
Cc1ccc(S(=O)(=O)N[C@@H](Cc2ccc(OS(=O)(=O)c3ccc(C)cc3)cc2)C(=O)Nc2ccc(N3CCOCC3)cc2)cc1 [Compound 101, (S)-4-(2-(4-Methylphenylsulfonamido)-3-(4-morpholinophenylamino)-3-oxopropyl)phenyl 4-methylbenzenesulfonate]	10.9 ± 4.88			35.10 ± 5.95	
COc1ccc(-c2csc(NC(=O)[C@H](Cc3c[nH]cn3)NS(=O)(=O)c3ccc(Br)cc3)n2)cc1 [Compound 102, (S)-2-(4-Bromophenylsulfonamido)-3-(1H-Imidazol-4-yl)-N-(4-(4-methoxyphenyl)thiazol-2-yl)propanamide]	27.2 ± 5.87			91.03 ± 6.44	
CON(C)C(=O)[C@H](CC(C)C)NS(=O)(=O)c1ccc(C)cc1 [Compound 103, (S)—N-methoxy-N,4-dimethyl-2-(4-methylphenylsulfonamido)pentanamide]	63.7 ± 14.3			−5.00 ± 6.69	
CON(C)C(=O)[C@H](Cc1c[nH]c2ccccc12)NS(=O)(=O)c1ccc(C)cc1 [Compound 104, (S)-3-(1H-indol-3-yl)-N-methoxy-N-methyl-2-(4-methylphenylsulfonamido)propanamide]	64.3 ± 5.96			6.26 ± 7.67	
Cc1ccc(S(=O)(=O)N[C@@H](Cc2c[nH]c3ccccc23)C(=O)N2CCOCCOCCOCC2)cc1 [Compound 105, (S)—N-(3-(1H-indol-3-yl)-1-oxo-1-(1,4,7-trioxa-10-azacyclododecan-10-yl)propan-2-yl)-4-methylbenzenesulfonamide]	57.1 ± 1.56			29.36 ± 7.43	
CC(C)(C)c1ccc(S(=O)(=O)N[C@@H](Cc2c[nH]c3ccccc23)C(=O)Nc2ccc(N3CCOCC3)cc2)cc1 [Compound 106, (S)-2-(4-tert-Butylphenylsulfonamido)-3-(1H-indol-3-yl)-N-(4-morpholinophenyl)propan amide]				17.13 ± 5.35	68.14 ± 9.57 (10 μM)

The next lines start with results.

inhibition at 40 µM [2, 3] [%]	DX-Nanoluciferase activity (40 μM) ([2]; 40 μM, 4 hours treatment, A549 cells transfected with nanoluciferase-DX2, inhibitory effect on AIMP2-DX2 expression)	inhibition at 10 µM [2] [%]	Structure (SMILES)	Cell Viability (% inhibition) (A549) [1] [%]	DX-Nanoluciferase activity (10 μM) ([2]; 10 μM, 4 hours treatment, A549 cells transfected with nanoluciferase-DX2)
37 ± 12.5			O=C(Nc1nc(-c2ccccc2Cl)cs1)[C@H](Cc1c[nH]c2ccccc12)NS(=O)(=O)c1ccc(Br)cc1 [Compound 107, (S)-2-(4-Bromophenylsulfonamido)-N-(4-(2-chlorophenyl)thiazol-2-yl)-3-(1H-indol-3-yl)propanamide]	59.19 ± 2.09	
57.5 ± 9.11			O=C(Nc1nccs1)[C@H](Cc1c[nH]c2ccccc12)NS(=O)(=O)c1ccc(Br)cc1 [Compound 109, (S)-2-(4-Bromophenylsulfonamido)-3-(1H-indol-3-yl)-N-(thiazol-2-yl)propanamide]	4.14 ± 1.04	
46.7 ± 7.18			Cc1cnc(NC(=O)[C@H](Cc2c[nH]c3ccccc23)NS(=O)(=O)c2ccc(Br)cc2)s1 [Compound 110, (S)-2-(4-Bromophenylsulfonamido)-3-(1H-indol-3-yl)-N-(5-methylthiazol-2-yl)propanamide]	8.95 ± 3.66	
	25.61 ± 22.32		Cc1ccc(S(=O)(=O)N[C@@H](Cc2c[nH]c3ccccc23)C(=O)Nc2nc(C)cs2)cc1 [Compound 111, (S)-3-(1H-indol-3-yl)-2-(4-methylphenylsulfonamido)-N-(4-methylthiazol-2-yl)propanamide]	11.65 ± 6.05	
61.5 ± 5.19			Cc1ccc(S(=O)(=O)N[C@@H](Cc2c[nH]c3ccccc23)C(=O)Nc2ncc(C)s2)cc1 [Compound 112, (S)-3-(1H-indol-3-yl)-2-(4-methylphenylsulfonamido)-N-(5-methylthiazol-2-yl)propanamide]	15.01 ± 6.55	
		15.1 ± 6.22	COC(=O)c1ccc(S(=O)(=O)N[C@@H](Cc2c[nH]c3ccccc23)C(=O)Nc2ccc(N3CCOCC3)cc2)cc1 [Compound 113, (S)-Methyl 4-(N-(3-(1H-indol-3-yl)-1-(4-morpholinophenylamino)-1-oxopropan-2-yl)sulfamoyl)benzoate]	4.67 ± 3.85	
		3.48 ± 8.58	CCOC(=O)c1ccc(S(=O)(=O)N[C@@H](Cc2c[nH]c3ccccc23)C(=O)Nc2ccc(N3CCOCC3)cc2)cc1 [Compound 114, (S)-Ethyl 4-(N-(3-(1H-indol-3-yl)-1-(4-morpholinophenylamino)-1-oxopropan-2-yl)sulfamoyl)benzoate]	47.88 ± 0.53	
		2.16 ± 6.66	Cc1ccc(S(=O)(=O)N[C@@H](Cc2ccc(C(=O)c3ccccc3)cc2)C(=O)Nc2ccc(N3CCOCC3)cc2)cc1 [Compound 115, (S)-3-(4-Benzoylphenyl)-2-(4-methylphenylsulfonamido)-N-(4-morpholinophenyl)propanamide]	0.35 ± 0.67	
		-0.11 ± 15.1	CNC(=O)c1ccc(S(=O)(=O)N[C@@H](Cc2c[nH]c3ccccc23)C(=O)Nc2ccc(N3CCOCC3)cc2)cc1 [Compound 116, (S)-4-(N-(3-(1H-indol-3-yl)-1-(4-morpholinophenylamino)-1-oxopropan-2-yl)sulfamoyl)-N-methylbenzamide]	34.22 ± 7.94	
		-2.56 ± 9.56	Cc1ccc(S(=O)(=O)N[C@@H](Cc2ccc3ccccc3c2)C(=O)Nc2ccc(N3CCOCC3)cc2)cc1 [Compound 117, (S)-2-(4-Methylphenylsulfonamido)-N-(4-morpholinophenyl)-3-(naphthalen-2-yl)propanamide]	4.59 ± 6.86	
